Values belong to the molecule of their own block, whether it stands above or below them.
Columns and labels:
[1] = MTT cytotoxicity of TSG for Caco-2 cells; assay type: cell-based; settings: human; Caco-2 cells, 60 μg·mL^− 1 TSG, 5 h, MTT; read-out: cell viability
Procedure: (§1) MTT assay was firstly used to investigate the effect of TSG with different concentrations on Caco-2 cells vitality. Briefly, Caco-2 cells were seeded in 96-wells plates at a density of 1 × 10^4 cells per well and placed in a 5% carbon dioxide incubator. After 48 h incubation, the cells were treated with increasing concentrations of TSG (0.75–240 μg·mL^− 1) and DMEM (containing 1%FBS) as a negative control. After 5 h of incubation, 20 μL of 5 mg·mL^− 1 MTT was added to each well, and the plate was incubated at 37 °C for 4 h. Then 150 μL of DMSO was added to each well after the supernatant was discarded. Absorbance was measured at a wavelength of 570 nm.

Caco-2 cells = test: MTT cytotoxicity of TSG for Caco-2 cells; assay type: cell-based
Procedure: as §1

Caco-2 cell monolayer = test: Bidirectional transport across Caco-2 cell monolayer (Papp); assay type: in vitro ADME
Procedure: Then, the supernatant was analyzed by HPLC. […] The injected sample volume was 5 μL. TSG was detected at wavelength of 320 nm.
(§2) (1): 1 Papp=dQ/dt×1/A×1/C0

P-gp = test: Western blotting, expression of P-gp in Caco-2 cells after TSG; assay type: cell-based; settings: TSG 10, 30 and 60 μg·mL^− 1, 4 h; significant at 60 μg·mL^− 1 (p < 0.05)
Procedure: (§3) When Caco-2 cells grew to 80–90%, the cell were treated with different concentrations (10, 30 and 60 μg·mL^− 1) of TSG and blank medium solution (blank control group). […] The concentration of total proteins was detected by BCA kit, and the supernatant were mix with SDS-PAGE sample buffer after protein quantification, denatured on a heater for 5 min and stored.
(§4) The total proteins were electrophoresed in 10% SDS-PAGE gel and then transferred to PVDF membranes by wet process to block with 5% skim milk for 2 h at room temperature. Membranes were incubated overnight with the following primary antibodies Anti-P glycoprotein antibody (1:2000), Anti-MRP2 antibody (1:500), and GAPDH polyclonal antibody. After that, the membranes were washed with 0.1% TBST for 3 times and 10 min each time and incubated with corresponding secondary antibody (1:5000) for 1 h at room temperature. The OD density values of bands were analyzed using gel imaging and analysis system.

MRP2 [2] = test: Western blotting, expression of MRP2 in Caco-2 cells after TSG; assay type: cell-based; settings: TSG 10, 30 and 60 μg·mL^− 1, 4 h; significant at 30 and 60 μg·mL^− 1 (p < 0.05)
Procedure: as §3, §4

[3] = In situ gastric perfusion of TSG in rats; assay type: in vivo; settings: rat
Procedure: According to the Chinese Pharmacopoeia, the artificial gastric juice without pepsin is configured under the time limit inspection method of disintegration.
The appropriate amount of TSG was accurately weighed, and the gastric perfusate was prepared at a concentration of 10, 30 and 60 μg·mL^− 1 using artificial gastric juice.
24 SD rats, half male and half female, were fasted for 12 h but permitted to drink water freely before surgery. Rats were anesthetized by intraperitoneal injection of 25% urethane ([…]) and placed in a supine position on the operating table. The abdominal cavity was opened along the midline of the abdomen, then the incision was made at the duodenum and the ileum. The polyethylene tubes were carefully inserted at both sides of the segment and ligatured with a sterile surgical line. […]
1 mL sample was mixed with equal amount of methanol, filtered through a membrane filter (0.45 μm pore size), and centrifuged at 12000 r·min^− 1 for 10 min. […] TSG was detected at wavelength of 320 nm and phenol red was detected at wavelength of 430 nm. […] With the sampling time t as independent variable and lnX as dependent variable, the absorption rate constant Ka was determined from the slope of the straight line. The drug absorption percentage were calculated by the ratio of the change value of the remaining dose of t (h) to the amount of the remaining drug at time 0.

[4] = In situ single-pass intestinal perfusion of TSG in rats (Ka, PA); assay type: in vivo, rat
Procedure: The proper amount of TSG was accurately weighed, and the intestinal circulation liquid with a concentration of 10, 30 and 60 μg·mL^− 1 was prepared by using a blank intestinal circulation solution.
24 SD rats, half male and half female, were fasted for 12 h but permitted to drink water freely before surgery. Rats were anesthetized by intraperitoneal injection of 25% urethane ([…]) and placed in a supine position on the operating table. The abdominal cavity was opened along the midline of the abdomen, then the incision was made at the duodenum and the ileum. The polyethylene tubes were carefully inserted at both sides of the segment and ligatured with a sterile surgical line. The contents of the intestines were slowly rinsed with 0.9% saline, prewarmed at 37 °C, and the residual liquid in the intestine was drained with air. Afterward, the wound in the abdomen of the rats was covered with a gauze soaked with 37 °C 0.9% saline buffer to moisturize after the operation, warmed with infrared lamp. The intestinal was equilibrated with a drug-containing perfusate (the concentration of TSG was 10, 30 and 60 μg·mL^− 1 respectively) which was preheated at 37 °C at a flow rate of 5 mL·min^− 1. Samples were collected in EP tubes after 10 min, and blank intestinal circulation solution (1 mL) was quickly added to circulatory solution. After that, the flow rate was adjusted to 2 mL·min^− 1, and the samples were taken at 10 min intervals for 4 h. In addition, in order to study the effects of different pH on intestinal absorption of TSG, the pH of the blank intestinal circulation solution was adjusted to 5.4 and 6.4, respectively. Finally, the experimental animals were euthanized by the method of rapid decapitation when the experiment was over. The procedures and precautions for sacrifice were the same as previously described.
(§5) 1 mL sample was mixed with equal amount of methanol, filtered through a membrane filter (0.45 μm pore size), and centrifuged at 12000 r·min^− 1 for 10 min. […] The mobile phase consisted of (A) 0.1% formic acid water and (B) acetonitrile. The gradient elution was set as: linear gradient elution 20–35% B (0-15 min) with a flow rate of 1 mL·min^− 1. The injected sample volume was 5 μL. TSG was detected at wavelength of 320 nm and phenol red was detected at wavelength of 430 nm. The concentration of phenol red was used to correct the volume of intestinal circulating fluid. The concentration of TSG and the volume of intestinal circulating fluid in each time period was used to calculate the residual drug amount (X). With the sampling time t as independent variable and lnX as dependent variable, the absorption rate constant Ka was determined from the slope of the straight line. The drug absorption percentage were calculated by the ratio of the change value of the remaining dose of t (h) to the amount of the remaining drug at time 0.
(§6) The absorption rate constants (Ka) and percentage of absorption (PA, %) were calculated using the following eqs. (3), (4), respectively.
(§7) Where X was the residual drug amount, C0 was the drug concentration of intestinal circulation liquid at 0 min, V0 was the drug volume of intestinal circulation liquid at 0 min, Ct was the drug concentration of intestinal circulation liquid at t min, Vt was the drug volume of intestinal circulation liquid at t min, t was the perfusion time.

MRP2 [5] = target: T1, MRP2 (Rattus norvegicus, UniProt Q63120); test: Effect of MRP2 inhibitor on intestinal absorption of TSG, in situ perfusion; assay type: in vivo
T1 construct: from tissue; host or cells: rat small intestine, perfused in situ
Procedure: The perfusion was started with inhibitor solution at a flow rate of 2 mL·min^− 1, and after 30 min, it was replaced with TSG solution to investigate the influences of efflux proteins on TSG.
as §5, §6, §7

[6] = parameters: method as in PMID 23371758; settings: rats plasma, two-compartment model; cited from earlier work
MRP2 [7] = test: Effect of MRP2 inhibitor on TSG transport across Caco-2 cell monolayer; assay type: in vitro ADME
Procedure: The effect of efflux protein inhibitors on the intestinal absorption of TSG was studied based on Caco-2 cell monolayer model. […] Before the administration, the inhibitor was added to AP side and BL side, and the plate was placed in an incubator. After 30 min, the inhibitor solution was replaced with TSG solution at concentration of 30 μg·mL^− 1 to inspect the effect of efflux proteins on TSG.
Then, the supernatant was analyzed by HPLC. HPLC separation was performed on Eclipse Plus C18 column (4.6 mm × 250 mm, 5 μm) at 30 °C. The mobile phase consisted of acetonitrile and 0.1% formic acid water (25:75) and the velocity of flow is 1 mL·min^− 1. The injected sample volume was 5 μL. TSG was detected at wavelength of 320 nm.
as §2

[8] = inhibitor 5 μg·mL^− 1, TSG 30 μg·mL^− 1, compared with TSG alone
[9] = inhibitor 25 μg·mL^− 1, TSG 30 μg·mL^− 1, compared with TSG alone
[10] = inhibitor 25 μg·mL^− 1, p < 0.05, rat

T1 sequence (Q63120 whole entry, the tested form may be a part): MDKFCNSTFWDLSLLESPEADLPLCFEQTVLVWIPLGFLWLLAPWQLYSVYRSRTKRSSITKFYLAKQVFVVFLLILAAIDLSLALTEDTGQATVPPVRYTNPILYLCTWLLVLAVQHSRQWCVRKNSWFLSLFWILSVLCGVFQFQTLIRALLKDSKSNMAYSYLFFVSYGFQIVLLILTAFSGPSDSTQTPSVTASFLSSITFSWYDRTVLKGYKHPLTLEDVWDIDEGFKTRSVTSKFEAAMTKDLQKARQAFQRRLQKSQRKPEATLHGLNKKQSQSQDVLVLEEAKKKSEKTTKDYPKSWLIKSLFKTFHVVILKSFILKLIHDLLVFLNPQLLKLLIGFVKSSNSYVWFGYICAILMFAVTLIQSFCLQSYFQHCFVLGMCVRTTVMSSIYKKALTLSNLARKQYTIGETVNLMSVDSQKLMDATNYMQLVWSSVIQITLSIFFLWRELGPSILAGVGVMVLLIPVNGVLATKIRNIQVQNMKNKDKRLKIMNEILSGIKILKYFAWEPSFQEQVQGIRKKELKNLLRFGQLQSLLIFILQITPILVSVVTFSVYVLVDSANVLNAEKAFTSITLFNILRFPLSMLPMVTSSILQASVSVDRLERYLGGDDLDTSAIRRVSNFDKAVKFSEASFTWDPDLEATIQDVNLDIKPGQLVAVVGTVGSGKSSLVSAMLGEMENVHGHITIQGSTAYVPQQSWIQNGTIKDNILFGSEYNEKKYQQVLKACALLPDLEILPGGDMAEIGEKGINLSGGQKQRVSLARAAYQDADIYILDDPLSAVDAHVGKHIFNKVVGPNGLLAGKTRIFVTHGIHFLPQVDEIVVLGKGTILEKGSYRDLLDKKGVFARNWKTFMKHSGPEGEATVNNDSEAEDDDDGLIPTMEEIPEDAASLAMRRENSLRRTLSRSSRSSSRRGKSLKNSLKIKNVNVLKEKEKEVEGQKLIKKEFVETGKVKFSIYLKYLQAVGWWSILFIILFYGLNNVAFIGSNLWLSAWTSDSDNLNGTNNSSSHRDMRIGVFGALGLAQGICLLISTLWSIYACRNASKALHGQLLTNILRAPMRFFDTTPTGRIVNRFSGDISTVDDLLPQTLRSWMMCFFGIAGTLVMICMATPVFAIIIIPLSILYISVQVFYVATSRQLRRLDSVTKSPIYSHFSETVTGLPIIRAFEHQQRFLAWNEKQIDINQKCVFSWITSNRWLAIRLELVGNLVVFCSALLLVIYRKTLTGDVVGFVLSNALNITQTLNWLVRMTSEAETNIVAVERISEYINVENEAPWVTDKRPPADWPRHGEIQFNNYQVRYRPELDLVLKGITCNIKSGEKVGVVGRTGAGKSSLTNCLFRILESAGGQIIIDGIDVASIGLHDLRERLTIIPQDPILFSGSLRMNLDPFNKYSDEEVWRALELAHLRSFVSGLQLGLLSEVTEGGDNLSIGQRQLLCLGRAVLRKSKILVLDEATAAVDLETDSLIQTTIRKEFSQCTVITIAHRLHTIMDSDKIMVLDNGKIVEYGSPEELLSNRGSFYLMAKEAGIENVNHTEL

- absorption class from Papp (Caco-2 cell monolayer; Caco-2 cell monolayer): moderately absorbed drug
- time at which bilateral Papp values reached the maximum (Caco-2 cell monolayer; after administration, 10, 30 and 60 μg·mL^− 1): 1 h
- expression of P-gp in Caco-2 cells (P-gp): increased with concentration
- absorption in stomach ([3]; TSG 10, 30 and 60 μg·mL^− 1): well absorbed
- absorption rate in the intestine ([4]; in situ perfusion, rat): lower than 20%
- Ka between pH 6.4 and 7.4 ([4]; rat intestinal perfusion, p < 0.01): significant increase
- PA value of pH 7.4 versus pH 6.4 and 5.4 ([4]; rat intestinal perfusion, p < 0.05): significantly different
- absorption rate constant (Ka) at 10 μg·mL^− 1 versus 30 and 60 μg·mL^− 1 ([4]; rat small intestine, p < 0.05): significantly greater
- percentage of absorption (PA) at 10 μg·mL^− 1 versus 30 and 60 μg·mL^− 1 ([4]; rat small intestine, p < 0.05): significantly greater
- substrate of efflux protein MRP2 (MRP2 [5]; conclusion from in situ transport data): may be the substrate
Compound: OC[C@H]1O[C@@H](Oc2c(O)cc(O)cc2/C=C/c2ccc(O)cc2)[C@H](O)[C@@H](O)[C@@H]1O [TSG, 2,3,5,4′-tetrahydroxystilbene-2-O-β-D-glucoside]
- viability at 5 h, 60 μg·mL^-1 [1]: > 90%
- cell viability (Caco-2 cells; Caco-2 cells, TSG more than 60 μg·mL^− 1, MTT): significantly decreased
- toxicity on Caco-2 cells (Caco-2 cells; TSG 0.75–60 μg·mL^− 1, MTT): basically no toxicity
- bilateral (AP-BL and BL-AP) Papp versus concentration (Caco-2 cell monolayer; 10, 30 and 60 μg·mL^− 1): decreased substantially with increasing concentration
- Papp values of bidirectional transport versus pH (Caco-2 cell monolayer; TSG 30 μg·mL^− 1, pH 7.4, 6.4, 5.4): increased significantly with the decrease of pH value
- expression of MRP2 in cells (MRP2 [2]): decreased
- absorption in stomach versus concentration ([3]; TSG 10, 30 and 60 μg·mL^− 1, p < 0.05): increased significantly with concentration
- absorption half-life (t1/2Ka) [6]: 14.80 min
- maximal concentration (Cmax) [6]: 5.70 μg·mL^− 1

- increase of Papp values of TSG, AP-BL side (MRP2 [7]; [8]): ~2.22 times
- increase of Papp values of TSG, BL-AP side (MRP2 [7]; [8]): ~1.82 times
- increase of Papp values of TSG, AP-BL side (MRP2 [7]; [9]): ~3.02 times
- increase of Papp values of TSG, BL-AP side (MRP2 [7]; [9]): ~1.91 times
- Ka values of TSG in presence of inhibitor (MRP2 [5]; [10]): significantly enhanced
- PA values of TSG in presence of inhibitor (MRP2 [5]; [10]): significantly enhanced
Compound: CCCN(CCC)S(=O)(=O)c1ccc(C(=O)O)cc1 [probenecid]

— PMC6977318, “In vitro and in situ study on characterization and mechanism of the intestinal absorption of 2,3,5,4′-tetrahydroxy-stilbene-2-O-β-D-glucoside” (BMC Pharmacology & Toxicology, 2020)
